PubChem BioAssay (NCI)
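These data come from cells grown in 96-well plates and exposed to compound for 48 hours at five concentrations. TGI: total growth inhibition.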

Assays:
Assay in all cases: NCI anticancer screen, dose series, 48 h
[1] = system: EKVX NSCLC
[2] = system: HCC-2998 colon
[3] = system: MDA-MB-231 breast
[4] = system: NCI-H226 lung
[5] = system: NCI/ADR-RES ovarian
[6] = system: OVCAR-4 ovarian
[7] = system: OVCAR-5 ovarian
[8] = system: SF-268 CNS
[9] = system: SR leukemia
[10] = system: UO-31 renal

Structure (SMILES) | TGI [1] | TGI [2] | TGI [3] | TGI [4] | TGI [5] | TGI [6] | TGI [7] | TGI [8] | TGI [9] | TGI [10]
O=C1/C(=C/c2ccc(O)cc2)CCc2ccccc21 | 58.3 µM | 43.6 µM | 43.4 µM | 57.8 µM | 44.8 µM | > 74.5 µM | > 91 µM | 37.6 µM | 16 µM | 47.9 µM
C[C@]12CCC(=O)C=C1CC[C@@H]1[C@@H]2CC[C@]2(C)C(=O)/C(=C\c3ccccc3)C[C@@H]12 | > 100 µM | 35.9 µM | > 100 µM | 33.5 µM | 72.7 µM | > 100 µM | > 100 µM |  | > 49.2 µM | > 70.6 µM
COC(=O)c1cc(/C=C2\Cc3cc4c(cc3C2=O)CCC4)cc2c1CCC2 | > 100 µM | > 100 µM | > 100 µM | > 100 µM | > 100 µM | > 100 µM | > 100 µM | > 100 µM | > 100 µM | > 100 µM
c1ccc(-c2cc(-c3cc(-c4ccccc4)no3)on2)cc1 | > 100 µM | > 100 µM | 74.8 µM | > 100 µM | > 100 µM | 85.9 µM | > 100 µM | > 100 µM | 31.3 µM | > 100 µM
Cc1nn(C(=O)c2ccncc2)c2c1C(c1ccccc1O)SC(N)=N2 (centres undefined) | > 10 µM | > 10 µM | > 10 µM | > 10 µM | > 10 µM | > 10 µM | > 10 µM | > 10 µM | > 10 µM | 
O=C1C=Cc2c(I)sc(I)c21 | 83.9 µM | 35.3 µM | 68.8 µM | > 100 µM | 67.7 µM | 52.6 µM | 94.6 µM | 32.7 µM | 27 µM | 32.5 µM
CC(C)[C@H](NC(=O)[C@@H](O)[C@H](N)Cc1ccccc1)C(=O)N[C@@H](Cc1ccccc1)C(=O)O | > 100 µM | > 100 µM | > 100 µM | > 100 µM | > 100 µM | > 100 µM | > 100 µM | > 100 µM | > 100 µM | > 100 µM
Oc1ccc2c3c1OC1c4[nH]c5c(c4CC4(O)C(C2)N(CC2CC2)CC[C@]314)CC1(O)C2Cc3ccc(O)c4c3[C@@]1(CCN2CC1CC1)C5O4 (some centres undefined) | 99.3 µM | 36.7 µM | 46.1 µM | 88.7 µM | > 100 µM | 90.5 µM | 74.9 µM | 49.4 µM | 57.5 µM | > 100 µM
Cc1ccc(S(=O)(=O)N/N=C2/CC[C@H](C(C)(C)C)C[C@@H]2C)cc1 | 32.2 µM | 33.5 µM | 43.7 µM | 28.3 µM | 31.2 µM | 20 µM | 32.5 µM |  | > 100 µM | 26.6 µM
N=c1c2ccccc2nc2oc3ccc(Cl)cc3n12 | > 100 µM | > 100 µM | > 100 µM | 34.6 µM | > 100 µM | 13.1 µM | 47.1 µM | > 100 µM | > 100 µM | 32.9 µM
Cc1c(C)c2ccc(O)cc2[nH]c1=O | > 100 µM | > 100 µM | > 100 µM | > 100 µM | > 100 µM | > 100 µM | > 100 µM |  | > 100 µM | > 100 µM
CCOC(=O)C1C(=O)CC(C)(O)C(C(=O)OCC)C1c1ccc(OC)cc1 (centres undefined) | > 100 µM | > 100 µM | > 100 µM | > 100 µM | > 100 µM | > 100 µM | > 100 µM | > 100 µM | > 100 µM | > 100 µM
Cc1ccc2nc(Cl)c(/C=N/N3C(=O)/C(=C/Cc4ccco4)N=C3c3ccccc3)cc2c1 | 98.7 µM | 75.8 µM | > 100 µM | > 100 µM | > 90.5 µM | > 100 µM | > 100 µM | 70.6 µM | > 100 µM | > 74.7 µM
CC(C)=CCC/C(C)=C/CC/C(C)=C/CC/C(C=O)=C/CC/C(C)=C\CC/C(C)=C/CC/C(C)=C/CC/C(C)=C/CC1=CC(=O)C=CC1=O | > 100 µM | > 100 µM | > 100 µM |  | > 100 µM | > 100 µM | > 100 µM | > 100 µM | > 100 µM | > 100 µM
N#C/C(N)=C(\C#N)N=CNc1ccccc1N | > 100 µM | > 100 µM | > 100 µM | > 100 µM | > 100 µM | > 100 µM | > 100 µM | > 100 µM | > 100 µM | > 100 µM
COc1ccc(-n2nnnc2C2(Nc3ccccc3)CCN(Cc3ccccc3)CC2)cc1 | 92 µM | 14 µM | 32.3 µM | > 100 µM | 51 µM | > 100 µM | 48.8 µM |  | > 100 µM | 38.9 µM
O=C(NO)c1ccc(OCc2ccccc2)cc1 | > 100 µM | > 100 µM | > 100 µM | > 100 µM | 32.1 µM | 75 µM | > 100 µM | > 100 µM | 90.9 µM | 72.8 µM
CC(C)(C)C1=NN=C2c3ccccc3C(=O)C21 (centres undefined) | > 100 µM | > 100 µM | > 100 µM | > 100 µM | > 100 µM | > 100 µM | > 100 µM | > 100 µM | 83 µM | > 100 µM
Cc1ccc2cccc(OC(=O)c3cc4c(cc3Cl)Sc3nccn3S4(=O)=O)c2n1 | 48 µM | 13.1 µM | 29.3 µM | > 75.7 µM | 46.2 µM | 25.1 µM | > 61.2 µM | > 100 µM | 16.7 µM | 30.6 µM

Structure (SMILES) | TGI [1] | TGI [2] | TGI [3] | TGI [4] | TGI [5] | TGI [6] | TGI [7] | TGI [8] | TGI [9] | TGI [10]
CCCCN1C(=O)C[C@H]2[C@@H]3CCc4cc(OCCN5CCCC5)ccc4[C@H]3CC[C@]2(C)C1=O | 30.1 µM | 15.8 µM | 15.7 µM | 21.4 µM | 38 µM | 27.6 µM | 24.3 µM | 28 µM | 23.6 µM | 15.6 µM
C/C(=C\c1ccc2c(c1)OCO2)[N+](=O)[O-] | 16.4 µM | 7.34 µM | > 100 µM | 28.6 µM | 37.9 µM | 14 µM | 15.1 µM | 10.7 µM | 2.39 µM | 
CC(=O)OCC1OC(OC2CC3C(C)(C)C(=O)CC[C@]3(C)C3CC[C@]45C[C@]4(CCC5[C@@H](C)CC(O)C(O)C(C)(C)O)[C@]23C)C(O)C(O)C1O (some centres undefined) | 29.9 µM | 21.7 µM | 19.5 µM | 30.6 µM | 32.8 µM | 25.7 µM | 30.8 µM | 21.8 µM | 16.9 µM | 32.2 µM
Clc1cccc(Cl)c1C1SCc2nc3ncccc3n21 (centres undefined) | > 100 µM | > 100 µM | > 100 µM | > 100 µM | > 100 µM | > 100 µM | > 100 µM | > 100 µM | > 100 µM | > 100 µM
CN(CCNC(=O)c1cc(-c2ccccc2)nc2ccccc12)CCNC(=O)c1cc(-c2ccccc2)nc2ccccc12 | > 87.8 µM | 5.54 µM | > 100 µM | 55.5 µM | > 100 µM | > 100 µM | > 55.7 µM | > 100 µM | 7.63 µM | > 100 µM
COc1cc(C2c3cc4c(cc3OC(O)C2C)OCO4)cc(OC)c1O (centres undefined) | > 81.9 µM | 49.5 µM | 89.3 µM | 64.3 µM | 23.4 µM | > 100 µM | > 100 µM | > 100 µM | > 100 µM | > 96.5 µM
CCC(CCCCC1CC[C@H]2CC(=O)C[C@@H]12)OC (some centres undefined) | > 100 µM | > 100 µM | > 100 µM | > 100 µM | > 100 µM | > 100 µM | > 100 µM | > 100 µM | > 100 µM | 
O=C(CN1CCCC1)Nc1ccc2sc3ccccc3c(=O)c2n1 | > 100 µM | 39.8 µM | > 100 µM |  | 54.5 µM | > 100 µM | 62.3 µM | 85.9 µM | > 100 µM | 27.9 µM
O=C1C(c2c(O)[nH]c3ccc(S(=O)(=O)N(CCO)CCO)cc23)=Nc2ccccc21 | > 100 µM | > 100 µM | > 100 µM | > 100 µM | > 100 µM | > 100 µM | > 100 µM | > 100 µM | > 100 µM | > 100 µM
CCCCC/C(=N\c1nc[nH]c1C(N)=O)OCC | > 100 µM | > 100 µM | > 100 µM | > 100 µM | > 100 µM | > 100 µM | > 100 µM | > 100 µM | > 100 µM | > 100 µM
CC1(c2nc3cc(Cl)c(Cl)cc3[nH]2)CCC(C(=O)O)C(C)(C)O1 (centres undefined) | > 100 µM | > 100 µM | > 100 µM | > 100 µM | > 100 µM | > 100 µM | > 100 µM | > 100 µM | > 100 µM | > 100 µM
CC1(C)OC([C@H](O)CO)C([C@H]2NCCS2)O1 (some centres undefined) | > 100 µM | > 100 µM | > 100 µM | > 100 µM | > 100 µM | > 100 µM | > 100 µM | > 100 µM | > 100 µM | > 100 µM
COc1cc(CNC(=O)CCCCCCCCCCSSCCCCCCCCCCC(=O)NCc2ccc(O)c(OC)c2)ccc1O | > 10 µM | > 10 µM | > 10 µM | > 10 µM | > 10 µM | > 10 µM | > 10 µM | > 10 µM | > 10 µM | 
Cc1cc(-c2ccc(Cl)cc2)c(C#N)c(=S)n1C1OC(CO)C(O)C(O)C1O (centres undefined) | > 100 µM | > 100 µM | > 100 µM | > 100 µM | > 100 µM | > 100 µM | > 100 µM | > 100 µM | > 100 µM | 
C=C1C(=O)O[C@H]2[C@H]3O[C@@H](C[C@@H]12)[C@](C)(O)CCCC(C)=CCC[C@H]3C | 22.4 µM | 23.6 µM | 35.8 µM | 36.9 µM | 22.7 µM | 39 µM | 31.1 µM | 20.7 µM | > 100 µM | 23.5 µM
CC(C)(Cc1ccccc1)Cc1cc(O)ccc1O | 65.8 µM | 39.1 µM | 39.2 µM | 97.8 µM | 42.9 µM | 91.9 µM | 88.8 µM | 35.7 µM | 27.7 µM | 26.3 µM
Cc1ccc(OCCn2cc(Nc3ccccc3)c(=O)[nH]c2=O)cc1 | > 100 µM | > 100 µM | > 100 µM | > 100 µM | > 100 µM | > 100 µM | > 100 µM | > 100 µM | > 100 µM | > 100 µM
[O-][n+]1onc2c1-c1nonc1CC2 | 81.6 µM | > 100 µM | 69.2 µM | 76.3 µM | > 100 µM | 74.1 µM | > 100 µM | > 100 µM | > 100 µM | > 100 µM
CC1=C/C(=C(/c2ccc(O)c(C)c2)c2ccccc2C(=O)O)C=CC1=O | 36 µM | 34.5 µM | 40.4 µM | 44.5 µM | 80.5 µM | 33.9 µM | 42.3 µM | 57.1 µM | 47 µM | 33.6 µM
